# Tests used:
# THC behavioral effects = assay: Inhibition of THC effects in vivo (summary over behavioral models); set-up: species or system mice, rats and non-human primates
# Experimental: Statistical analyses were carried out using GraphPad Prism, Statistica (Statsoft) or SigmaPlot (Systat Software) software. […] When appropriate, significant main effects were analyzed by subsequent multiple paired comparisons or multiple comparisons versus the control group using the appropriate post hoc test (Dunnett, Tukey or Sidak test). Different but similar post hoc tests were used because the experiments were performed by independent research groups that used similar but not identical statistical procedures. […] For non-parametric analysis, a Kruskal–Wallis ANOVA was used, followed, when appropriate, by the Mann–Whitney test for pairwise comparisons. Unless otherwise stated, all the performed statistical tests were two-sided. The ID50 or IC50 was estimated by nonlinear regression using the ‘log(inhibitor) versus response’ equation model with GraphPad Prism software. All results are expressed as mean ± s.e.m. The significance threshold was set at P < 0.05.
# squirrel monkeys = assay: THC-induced reinstatement of THC seeking in squirrel monkeys; format: in vivo, Saimiri sciureus
# Source text: Two experimental models were used: (1) THC i.v. self-administration and (2) THC-induced reinstatement of THC seeking. These two approaches were used to model the maintenance of daily cannabis use and cannabis seeking after a period of abstinence.
# For the THC-induced reinstatement of THC seeking, the monkeys underwent daily extinction sessions during which lever presses led to vehicle infusions and the visual cues previously paired with THC infusions but not THC. […] THC injections were given immediately before the start of the test sessions. During testing, lever presses (FR10) continued to produce only vehicle injections and the THC-paired cues. […] Recommendations from the Guide for the Care and Use of Laboratory Animals (8th edition) and guidelines of the Institutional Animal Care and Use Committee of the Intramural Research Program, NIDA, NIH, DHHS, were followed. Animals were maintained in facilities fully accredited by the AAALAC. Operation of the experimental chambers and data collection were controlled by IBM computers using the MED Associates MED-PC software package.
# mice [1] = assay: THC-induced increase in food intake (fasting-refeeding); format: in vivo
# mice [2] = assay: THC-induced increase in psychomotor stimulation (open field); format: in vivo
# mice [3] = assay: THC-induced impairment of long-term memory (object recognition); format: in vivo
# mice [4] = assay: Depression-related behavior, sucrose preference test, repeated treatment; format: in vivo; details: mice, sucrose preference test, highest dose tested 15 mg/kg
# Source text: Anxiety-like behaviors were studied in the elevated plus maze (EPM), a rodent model used to evaluate the putative anxiogenic or anxiolytic effects of pharmacological compounds. Depression-related behaviors were studied using the sucrose preference test as a model of anhedonia, one of the cardinal symptoms of depression.
# The sucrose preference test was done in the home cage. Two identical bottles, one containing water and the other containing a 2% sucrose solution, were placed in the hopper of each cage. The mice had unlimited access to water and sucrose solutions during the active phase—the dark phase of the light/dark cycle that started at 20:00. The volume of water and of sucrose solution consumed was measured over two […] intervals, the first between 19:00 and 20:30 and the second between 20:30 and 22:00. At each timepoint, the bottles were weighed, and the intake volume was calculated by subtracting the […].
# The EPM assessment was done on day 26, and the sucrose preference test was done on day 28.
# volunteers with CUD = assay: Phase 2a study, plasma steroids, endocannabinoids, THC and metabolites; format: in vivo, human
# Experimental: THC and its metabolites (11-OH-THC and 11-COOH-THC) were assessed at the same timepoints. […] THC and its metabolites analyses were performed using PD dataset (n = 13 for both doses).
# PK parameters for AEF0117 were subject to descriptive statistics separately for each treatment group.
# ALLO, DHEA, PREG and TESTO, as well as AEA and 2-AG, were measured. Data were analyzed using a global crossover MRMM analysis on the PD dataset (n = 13 per dose cohort).
# [5] = Exposure at the highest dose tested in animals without toxicity; format: in vivo; details: human, plasma; exposure limit for humans
# Experimental: The planned dose-escalation schema for the SAD study was based on preclinical pharmacodynamics (PD), safety and toxicology data translated to humans using body surface ratios to ensure a large safety margin. For the MAD study, safety and PK data from the SAD study were used to determine doses. In both studies, all safety data for a given cohort/dose level were evaluated by a Data Safety Monitoring Board that was guided by predefined stopping criteria. The stopping criteria were based on the seriousness and severity combined with frequency of AEs that would lead to either not proceeding to the next dose level or stopping the trial. Dose escalation was also to be halted if the peak plasma levels exceeded that corresponding to the NOAEL in the most sensitive animal species (that is, the rat) in preclinical toxicology studies.
# rats = assay: Respiration in unrestrained conscious rats (GLP)
# [6] = Reinstatement of THC self-administration
# [7] = Increase in psychomotor stimulation
compound,measurement,setting,value
"COc1ccc(CO[C@H]2CC[C@@]3(C)C(=CC[C@H]4[C@@H]5CC[C@H](C(C)=O)[C@@]5(C)CC[C@@H]43)C2)cc1 [AEF0117, 3β-(4-methoxybenzyloxy)pregn-5-en-20-one]",most observed ID50 for inhibiting the effects of THC,"THC behavioral effects; mice and non-human primates, oral",5 µg/kg
same,most observed ID50 for inhibiting the effects of THC,"THC behavioral effects; mice, rats and non-human primates",5 µg/kg
same,ID100 for THC effects in fewer cases,"THC behavioral effects; oral, 3 h before THC",1.5 µg/kg
same,most frequently observed ID100 for THC effects,"THC behavioral effects; oral, 3 h before THC",15 µg/kg
same,reinstatement of THC seeking,squirrel monkeys; 1.5 µg kg^−1 oral,significantly reduced
same,% Inhibition,squirrel monkeys; [6],80%
same,ID100,squirrel monkeys; [6],≤ 1.5 µg/kg
same,THC's effects on food intake,mice [1],inhibited
same,% Inhibition,mice [1]; Increase in food intake,100%
same,ID50,mice [1]; Increase in food intake,15 µg/kg
same,ID100,mice [1]; Increase in food intake,50 µg/kg
same,THC-increased psychomotor stimulation,mice [2],inhibited
same,% Inhibition,mice [2]; [7],100%
same,ID50,mice [2]; [7],0.36 µg/kg
same,ID100,mice [2]; [7],1.5 µg/kg
same,THC's effects on long-term object recognition memory,mice [3],inhibited
same,% Inhibition,mice [3]; Impairment of long-term memory,100%
same,ID100,mice [3]; Impairment of long-term memory,≤ 5 µg/kg
same,Overall effect: increase in depression-related behaviors,mice [4],No
same,"plasma THC and its metabolites, AEF0117 vs placebo periods",volunteers with CUD,no statistically significant differences
same,AUC,[5],41600 ng·h/mL
same,Cmax,[5],4360 ng/mL
same,adverse effects on respiration,rats,did not show any adverse effects
